Entries after “also recorded” stand apart in the source; their conditions may differ.
Assays:
1000 bp DNA / pUC19 DNA = assay: Hfq·DNA aggregation: pelleting and protease assays; type: biochemical; conditions: 3.5 µM Hfq hexamer, 15 nM 1000 bp DNA (pelleting) or 6 nM pUC19 (protease assay), 25 °C
Description: Figure 5. CTD and RNAs inhibit DNA binding to Hfq by obstructing the basic rim patch. (A, B) Agarose gel electrophoretic mobility shift assays of 0–3.3 μM hexamer Hfq102, Hfq102-R16A, Hfq65 or Hfq65-R16A binding to 6 nM linear pUC19 DNA ([…]) at 25°C, stained with SYBR Gold. Hfq65 forms large aggregates that fail to enter the gel (Figure 5—figure supplement 1). (C, D) Line densitometry of DNA migration in (A, B). Free pUC19 (no Hfq) is shown in light grey. Samples with increasing Hfq concentration are shown in darker shades of grey. (E, F) RNA competition. Complexes of 0.5 μM Hfq102 hexamer and 6 nM linear pUC19 (black) were challenged by 0–2 μM RNA or DNA competitor (darker shades of red). pUC19 control in the absence of Hfq is shown in light grey. Icons indicate the binding surface for each competitor. See Figure 5—figure supplement 2 for gel images. Figure 5—figure supplement 1. Hfq CTD prevents aggregation with DNA. (A) Protease assay. 3.5 µM Hfq hexamer incubated with 6 nM linear (L) plus relaxed circular (N) pUC19 DNA at 25°C, for 30 min, in 50 mM Tris-HCl pH 7.5 and 10 mM CaCl2. The samples were divided in two. […] Digestion of Hfq65 and Hfq65-R16A with Proteinase K liberates DNA from Hfq•DNA aggregates, allowing it to be detected (lanes 9 and 10). […] The small proportion of Hfq65·DNA complexes remaining in the supernatant were only detected in the gel after treatment with salt. […]

[1] = SDS-PAGE oligomerization of purified Hfq variants; type: physicochemical, E. coli; conditions: 4–20% SDS-PAGE, ~2.8 µg protein, 2% SDS, boiled
Description: Figure 2. CTD and RNA occupy the same rim binding site. […] The CTD linker is shown in purple, the acidic tip in red and the N-terminal FITC as a yellow star. Hfq core is shown in cyan, with basic rim patches in dark blue. […] (C) Reaction scheme for annealing an RNA molecular beacon to a target RNA (open bar) ([Hopkins et al., 2011]; [Panja et al., 2015]). (D) Progress curves for annealing 50 nM molecular beacon and 100 nM Target by 50 nM Hfq65 hexamer at 30°C, measured by stopped-flow fluorescence. See Figure 2—figure supplement 3 for further data. (E) Contribution of core residues to CTD binding. Interaction energy (Expected Energetic Contribution; EEC) in silico for a core residue in the Rosetta models (solid symbols and solid line; adjusted R^2 = 0.77) or the average annealing rates for Target and Target-A18 relative to Hfq65 (open symbols and dashed line; adjusted R^2 = 0.94) versus experimental CTD binding energy (∆∆G°) for each Hfq65 variant. The binding energy, ∆∆G° = –RTln(Kd^MUT/Kd), reflects the perturbation to CTD binding by a mutation in Hfq65. The interaction energy in silico or EEC is defined as the average energy of a tail–core interaction multiplied by the average number of tail–core interactions per model (Figure 1B, top and Equation 3). The relative annealing rate for Hfq65 variants, krel = kobs^MUT/kobs^WT, is <1 if the mutated residue is important for RNA annealing. Figure 2—figure supplement 1. SDS-PAGE of purified Hfq variants. WT Hfq assembles into hexamers and dodecamers that are stable to SDS-PAGE, which can be used to evaluate the oligomerization of Hfq variants. Purified Hfq protein (~2.8 µg) was separated on a 4–20% SDS-PAGE gel and stained with Coomassie blue (lanes 2–6). Samples were prepared in 2% SDS and boiled before loading. Lane 1, Protein standards (10 µL All Blue Precision Plus, […]). […] Annealing of 100 nM Target RNA to 50 nM beacon RNA by Hfq65 and Hfq65 variants was measured by stopped flow fluorescence at 30°C in 1 × TNK buffer. […] The change in fluorescence emission intensity was normalized to the maximum fluorescence within an experiment. […]

Hfq102 = assay: RNA binding to Hfq102, fluorescence anisotropy; design: species or system E. coli; conditions: dsRNA product (D16-FAM·R16) versus ssRNA substrate (D16-FAM)

For Hfq65-R16A, the “Hfq·DNA aggregation” value (1000 bp DNA / pUC19 DNA) was “more evenly distributed between pellet and supernatant fractions; also recorded: form insoluble aggregates with DNA which do not enter the gel”.

In the case of “Hfq65: truncated E. coli Hfq variant lacking the CTD”, the “Hfq·DNA aggregation” value (1000 bp DNA / pUC19 DNA) was “Nearly all of the Hfq65·DNA complexes were found in the pellet fraction; also recorded: form insoluble aggregates with DNA which do not enter the gel” and the “oligomeric state on SDS-PAGE” value [1] was “form hexamers with slightly different stabilities”.

With Hfq102: full-length E. coli Hfq the “Krel = Kd(P)/Kd(S), Hfq102” value (Hfq102) was 7.5 and the “oligomeric state on SDS-PAGE” value [1] was “migrates as a dodecamer (red dot) and monomer (green dot) with no visible hexamer band”.
